Laboratory results taken from US7402575B2, “Methods of treating inflammation” (priority 2003, dated 2008).
“Also recorded” adds a separate entry of the source.

Experiments:
Datura stramonium lectin = test: Inhibition by TAC of lectin-induced depression of isometric tension in right ventricular trabecular preparation; type: cell-based, dog; conditions: TAC 10^−4M pre-treatment
Protocol: After baseline tension was determined, either the lectin or placebo was placed into respective organ baths. The concentrations of the lectins used were 10^−8M, 10^−7M, and 10^−6M based on the concentration of lysozyme found in sepsis that averaged approximately 10^−8M. In the case of Datura stramonium lectin, moreover, the effect of TAC on inhibiting the myocardial depression caused by this lectin was also examined. […] Measurements were obtained at 5 minute intervals. The changes in isometric tension measured from baseline were compared between the lectin treated and placebo preparations.
Lectins are nonenzymatic proteins that bind to carbohydrates and can be classified by their specificity for a particular sugar or polysaccharide (42). […] After baseline tension was determined, either the lectin or placebo (i.e. KH) was placed into respective organ baths in which the concentrations of the lectins used were similar to those described for Lzm-S. In the case of DSL, moreover, it was assessed whether TAC could also prevent the depression caused by this lectin.

E. coli sepsis in dogs = test: Chitobiose given after 3.5 h of E. coli sepsis, reversal of myocardial depression; type: in vivo, dog; parameters: HR: unit not given here; conditions: for HR / Pwp: mean±SD
Protocol: The E. coli model used in this study was identical to that previously described. Sepsis was induced by the intravenous infusion of 10^10 colony forming units of live E. coli (designation 0111:B4). The bacteria were suspended in normal saline infusion, which was given over 0.5 h. A constant infusion of approximately 5×10^9 colony forming units/h of E. coli was then maintained for the remainder of the experiment.
During the experiment, the animals (16-21) kg were anesthetized with thiopental sodium (20 mg/kg iv) and constantly infused with sufentanil citrate (1 ug/min) and midazolam (5 ug/kg/min). The rates were adjusted to abolish the palpebral reflex. The animals were placed in the supine position; the trachea was intubated with an endotracheal tube; and the lungs were mechanically ventilated at a tidal volume of 20 ml/kg. The ventilator rate was initially set to maintain blood pH at approximately 7.35 and was changed as necessary over the course of the experiment to maintain blood pH as normal as possible. 100% oxygen was inspired to prevent hypoxemia from contributing to the results, and arterial oxygen tension was maintained greater than 500 mmHg over the course of the study in all experiments.
A thermister tipped catheter was advanced from the jugular vein into the pulmonary artery to measure pulmonary arterial pressure, mean pulmonary capillary wedge pressure (Pwp), right atrial pressure, thermodilution cardiac output (CO, Columbus Instruments, Ohio), and to obtain mixed venous oxygen blood samples. A polyethylene catheter was placed into the femoral artery to measure mean blood pressure (MAP) and to withdraw samples of blood for blood gas analysis. All catheters were connected to transducers (Cobe Laboratories) and were referenced relative to the left atrium. All transducers were connected to a chart recorder (Astro-Med, W Warwick, R.I.). Heart rate (HR) was measured from the recorder tracing. Stroke volume (SV) was calculated as CO/heart rate. Stroke work (SW) was calculated from SV×(MAP-Pwp).
After baseline measurements were obtained, bacteria were infused over a six hour period. Chitobiose was infused at 3.5 hours post sepsis after myocardial depression had already developed and was administered over a 0.5 h period. The dose used was 1000 mg (40 mg/kg) in which the drug was mixed in 100 ml D5W. Based on preliminary calculations, this dose could achieve an approximate plasma concentration of 0.5×10^−4 M. 100 mg/hr of chitobiose (5 mg/kg) mixed in 50 ml of D5W was then infused over the remaining course of the experiment. Measurements were obtained after 3.5 hr of sepsis, after treatment, and 1 and 2 hrs post treatment. Stroke work (SW) was the primary measurement of the myocardial contractility used in this study. Pulmonary capillary wedge pressure (Pwp) was used as an index of preload and was maintained constant between conditions at approximately 10 mmHg. Normal saline solution was given as necessary to maintain Pwp relatively constant.
Statistics included one way analysis of variance for repeated measures and Student Newman Keuls' multiple comparison test. The results are reported mean±1SD.

[1] = post sepsis (3.5 h), before chitobiose

## CC(=O)N[C@H]1[C@H](O[C@H]2[C@H](O)[C@@H](NC(C)=O)C(O)O[C@@H]2CO)O[C@H](CO)[C@@H](O[C@@H]2O[C@H](CO)[C@@H](O)[C@H](O)[C@H]2NC(C)=O)[C@@H]1O (some centres unmarked) [TAC, N,N′,N″ triacetylglucosamine]
Datura stramonium lectin
  Effect of TAC on myocardial depression caused by Datura stramonium lectin: markedly attenuated; also recorded: could be reversed by pre-treatment with TAC; also recorded: blocked the isometric depression

## CC(=O)N[C@H]1[C@H](O[C@H]2[C@H](O)[C@@H](NC(C)=O)C(O)O[C@@H]2CO)O[C@H](CO)[C@@H](O)[C@@H]1O (some centres unmarked) [chitobiose, N,N′ diacetylglucosamine]
E. coli sepsis in dogs; 1 and 2 hrs post treatment
  Stroke work post treatment vs 3.5 hrs postsepsis: significant increase in stroke-work at 1 and 2 hrs post treatment; also recorded: increased after chitobiose treatment
E. coli sepsis in dogs; 1 hr post treatment
  HR: 86±20
  Pwp: 9.5±1.2 mmHg
E. coli sepsis in dogs; 2 hrs post treatment
  HR: 87±12
  Pwp: 9.9±0.9 mmHg
E. coli sepsis in dogs; after treatment
  HR: 91±25
E. coli sepsis in dogs; baseline
  HR: 48±9
  Pwp: 10±0.8 mmHg
E. coli sepsis in dogs; chitobiose 1000 mg over 0.5 h at 3.5 h post sepsis, then 100 mg/hr, 4 dogs
  Mean arterial pressure after treatment vs 3.5 hrs postsepsis: significant increase in mean arterial pressure after treatment; also recorded: increased after treatment with chitobiose
E. coli sepsis in dogs; chitobiose administered after 3.5 hr of sepsis
  Myocardial depression already developed in sepsis: reversal of the myocardial depression observed
E. coli sepsis in dogs; dog, in vivo
  Cardiac output vs baseline: higher at the different conditions as compared with baseline
  Stroke work at the post treatment conditions vs baseline: not different from that found at baseline
  Stroke-volume among the treatment conditions: did not reach statistical significance
E. coli sepsis in dogs; [1]
  HR: 98±24
  Pwp: 9.6±0.8 mmHg
E. coli sepsis in dogs; post treatment
  Pwp: 10.4±0.5
